The source of these data is US5514668A (priority 1989, dated 1996).

“Also recorded” adds a separate entry of the source.

One series deals with mice. The series is described as follows: Toxicity on intravenous injection in mice.
Series [1] is described as follows: Elimination in urine of mice (UV analysis). The settings on record: i.v., 1% solution, 0.4 ml. The class given is in vivo.
Method: The product A was at a concentration of 1% injected intraveneously in mice which each received a dose of 0.4 ml corresponding to 32×10^-4 g crown ether.
A short description of series [2]: Complexing capability, cesium binding in dialysis hose. On the procedure: The resulting solution was transferred to a hose for dialysis having a pore radius of approximately 1.5 nm.
After 12 hours samples taken from the liquid inside the dialysis hose and from the liquid outside the hose in the graduated glass, resp., were measured by means of a gamma counter operating at 0.66 MeV, to determine the ratio of the Cs concentration inside the dialysis hose to the Cs concentration outside the hose. On the basis of these determinations the corresponding amounts of Cs in the two liquids were calculated.

For series [3], the system named is Coccidia. The settings on record: tissue culture; J. Med. Chem. 1983, 26, 590-592; cited from earlier work.
Series [4] relates to Coccidia. To be noted: poultry, admixed in the fodder; cited from earlier work.
For series [5], the system named is foot- and -mouth disease virus, type A. To be noted: mouse, in vivo.
Series [6] relates to foot-and-mouth desease virus, type A, Holland. Also noted: species or system Holland; Guinea pigs. The settings on record: guinea pig, in vivo, sc.
For series [7], the system named is foot-and-mouth desease virus, type C, Turup. Also noted: species or system Turup; Guinea pigs. The settings on record: guinea pig, in vivo.
Series [8] is described as follows: Complexing capability, diffusion test using a membrane cell. The class given is binding. To be noted: aqueous, alcohol containing solution; relative to free crown ether.
Series [9] in a line: Elimination of Cs^137 from blood of mice into urine. The class given is in vivo. Here is the method:
Tests were performed at Fors.o slashed.gsstation Ris.o slashed., Department of Health, Roskilde, Denmark, to investigate the ability of the dextran-crown ether compounds to remove radioactive cesium, Cs^137, from the blood of mice.
Three tests were run, each using five mice.
As basis solution for use as injection liquid or for use as basis for the preparation of such, an aqueous 0,9% sodium chloride solution was used containing Cs^137 in an amount corresponding to 3000 Bq/ml.
In each test the mice were kept in a cage, the bottom of which was a net below which a funnel was arranged for collecting the urine of the mice. After each collection of urine the bottom was flushed with water, and urine plus flushing water were collected and diluted with water to 20 ml before the radioactivity were determined by means of a Geiger counting apparatus.
By this test each mouse was injected with 0,1 ml af the basis solution and thus received 300 Bq Cs^137. The time for this injection, below designated to, was 11:30 .
After one hour each mouse was injected with 0,4 ml of a 6 w/v-% aqueous solution of the dextran-O-carbonylbenzo-18-crown-6-product produced according to Example 1, corresponding to 24 mg of this product per mouse.
Collection of urine with subsequent determination of radioactivity was initiated one hour and […], corresponding to 1.35 hours after to and was continued as it appears from Table I below.
47.81 hours after to a further injection of 0.5 ml of the 6%'s dextran-crown ether-solution was made on each mouse and the collection of urine and determination of radioactivity therein were continued.
At this test the injection solution was a mixture of 2 ml of the above mentioned Cs^137 -containing solution and 8 ml of the dextran-crown ether solution used in Test I.
Each mouse was injected with 0,5 ml of the mixture and thus received 300 Bq Cs^137 and 24 mg dextran-crown ether. Collection of urine and further crown ether injection (0,5 ml 6% solution) was made as in Test 1 as it appears from Table II below.
By this comparison test the injection solution was a mixture of 2 ml of the above mentioned basis solution containing 3000 Bq/ml Cs^137 and 8 ml aqueous 0,9% by weight NaCl-solution. Each mouse was injected using […] of the mixture and thus received 300 Bq Cs^137.

The mark [10] stands for this setting: 0.08% solution, 0.4 ml, 3.2×10^-4 g crown ether.

As to “T40-Dextran-O-carbonylbenzo-18-crown-6 [product B]”, in the series on mice (i.v., 10% solution, 0.4 ml), the symptoms after injection result is “subdued after having received this dose and had bristled furs; also recorded: thereafter they did not shown any symptoms”. Moreover, the “duration of being subdued with bristled furs” value in the series with mice (i.v., 10% solution, 0.4 ml, several animals) is “approximately 30 minutes”.
“T40-Dextran-O-carbonylbenzo-18-crown-6 [product A]”: the “time after which compound was excreted substantially completely in urine” value in series [1] lay in the range of 3 to 5 h. The signs of illness entry in the series on mice (i.v., 1% solution, 0.4 ml) is listed as “did not show any sign of illness”.
For the compound dextran-hydroxyethylbenzo-18-crown-6, the “capability of catching and binding cesium ions” value in [2] was “substantial capability of catching and binding cesium ions”. In series [2] (after 12 h), the “Cs in liquid inside the hose” value came to 658 µg and the “Cs in liquid outside the hose” value was determined as 1362 µg. Moreover, the “Cs conc. inside hose/Cs conc. outside hose” value in series [2] (after 12 h, gamma counter) is on record as 1.2. For the same compound, in [2] (initially), the “Cs conc. inside hose/Cs conc. outside hose” value is recorded as 1, the “Cs in liquid inside the hose” value is 520 µg and the “Cs in liquid outside the hose” value came out at 1500 µg.
Consider `c1ccc2c(c1)OCCOCCOCCOCCOc1ccccc1OCCOCCOCCOCCO2` [dibenzo-30-crown-10], for which the anti-coccidial activity result in the series with Coccidia [3] is “have an anti-coccocidal activity in tissue culture tests”. The “in vivo anti-coccidial effect” value in the series on Coccidia [4] is “no in vivo effect was demonstrated”.
“dextran-O-carbonylbenzo-18-crown-6 [dextran-crown ether]”: the “effect on viral activity” value in [5] is on record as “impedes the viral activity”. Further, in series [5], the “significance of titre difference versus virus control” value is reported as “not significant”. Further, the “reduction of the number of blisters” value in [6] is “a reduction of the number of blisters was obtained”. Also, the antiviral activity result in series [7] is recorded as “exhibited an antiviral activity at all three days”. Further, the “capability of complexing metals, such as sodium ions” value in [8] is recorded as “has been maintained”. For the same compound, the “radioactivity in urine + flushing water” value in [9] (Test 1, 1.35 hours after to, 24 mg per mouse given one hour after Cs^137) is recorded as 6978 counts; in series [9] (Test 1, 4.63 hours after new to (second injection)), 3533 counts; in series [9] (Test 1, 4.83 hours after to), 3684 counts; in [9] (Test 1, 8.67 hours after new to (second injection)), 2937 counts; in series [9] (Test 1, 8.88 hours after to) it was 8280 counts; in [9] (Test 1, 20.07 hours after to) it was 17001 counts. The “radioactivity in urine + flushing water” value is recorded as 6391 counts in series [9] (Test 1, 22.28 hours after new to (second injection)); 17368 counts in series [9] (Test 1, 44.92 hours after to); 2213 counts in series [9] (Test 1, 47.78 hours after to); 4498 counts in series [9] (Test 2, 0.87 hours after to, 24 mg per mouse injected in mixture with Cs^137); 3659 counts in [9] (Test 2, 4.33 hours after new to (second injection)); 11634 counts in [9] (Test 2, 4.62 hours after to). Moreover, the “radioactivity in urine + flushing water” value turned out to be 3222 counts in series [9] (Test 2, 8.40 hours after new to (second injection)); 8566 counts in series [9] (Test 2, 8.65 hours after to); 16805 counts in [9] (Test 2, 19.82 hours after to); 4966 counts in series [9] (Test 2, 22.08 hours after new to (second injection)); 12901 counts in series [9] (Test 2, 44.65 hours after to); 2728 counts in series [9] (Test 2, 47.53 hours after to). For the same compound, the “Counts, total (accumulated)” value in series [9] (Test 1, time 1.35) is 6978 counts; in series [9] (Test 1, time 4.83), 10662 counts; in series [9] (Test 1, time 20.07), 35943 counts; in series [9] (Test 1, time 44.92), 53311 counts; in [9] (Test 1, time 47.78), 55524 counts; in [9] (Test 1, time 52.41), 59057 counts. For the same compound, the “Counts, total (accumulated)” value in series [9] (Test 1, time 56.45) is recorded as 61994 counts; in [9] (Test 1, time 67.06), 68385 counts; in [9] (Test 2, time 0.87) it was 4498 counts; in series [9] (Test 2, time 8.65), 24698 counts; in series [9] (Test 2, time 19.82), 41503 counts; in series [9] (Test 2, time 44.65), 54411 counts. Besides, the “Counts, total (accumulated)” value in series [9] (Test 2, time 47.53) is on record as 57139 counts; in series [9] (Test 2, time 51.86) it was 60798 counts; in series [9] (Test 2, time 55.93), 64020 counts; in series [9] (Test 2, time 69.53), 68986 counts. Besides, in series [9] (approximately 8 hours after second injection), the “speed of excretion of Cs^137 after the second injection” value was “somewhat increased speed of excretion”. In [9] (approximately 70 hours, Tests 1 and 2 versus Test 3), the “more radioactive Cs excreted than in comparison Test 3” value is recorded as “approximately 17%”. Besides, in series [9] (first 5-8 hours after the first injection), the “speed of elimination of Cs^137” value is given as “significantly increased”.
As for `c1ccc2c(c1)OCCOCCOCCOCCOCCO2` [benzo-18-crown-6], in the series on mice (setting [10]), the “duration of heavy convulsions” value is on record as “approximately 15 minutes”; the symptoms and survival entry was “heavy convulsions appeared; also recorded: the animals survived”. In addition, the “reaction compared with product (B)” value with mice (3.2×10^-4 g pure compound versus product (B) containing 1.2×10^-4 g unbound) is listed as “significantly heavier reaction”. Moreover, the death of animals entry with mice (aqueous solution 0.8%, 0.4 ml, 32×10^-4 g crown ether) is on record as “The animals died immediately before the injection was completed”.
